Patent US6512007B1, “Use of galiella lactone” (Bayer Aktiengesellschaft, priority 2000, dated 2003)

Experiments:
[1] = system: 6-hydroxydopamine lesion of the substantia nigra; assay: 6-Hydroxydopamine (6-OH-DA) lesion in the rat, staircase test (forepaw coordination); assay type: in vivo; conditions: bid, i.p.
Stat1 = assay: IL-6-induced tyrosine-701 phosphorylation of Stat1 in HepG2 cells, immunoprecipitation/Western blot; assay type: cell-based, human; conditions: HepG2, IL-6 50 ng/ml; all concentrations tested, up to 16 μg/ml, equivalent to 165 μM
Text: A crucial step in IL-6-dependent intracellular signal transduction is the phosphorylation of tyrosine-705 in Stat3 and tyrosine-701 in Stat1. […] However, inhibitors which inhibit the Stat3 and Stat1 phosphorylation also have crucial effects on other signal cascades, and therefore pharmaceutically usable inhibitors of IL-6-dependent gene expression should, in the concentration range in which they display their pharmacological effect, affect the Stat3 or Stat1 phosphorylation only slightly or not at all.
Seed out HepG2 cells in Petri dishes (diameter: 10 cm) (OptiMEM medium with 10% fetal calf serum and penicillin/streptomycin (100 iu) cell density: 5×10^5 cell/ml). Incubate in a moist atmosphere with 5% CO2 at 37° C. for 24 h. Replace medium by fresh OptiMEM medium with 0.5% fetal calf serum and penicillin/streptomycin (100 iu) and incubate for a further 48 h. Replace medium by fresh OptiMEM medium with 0.5% fetal calf serum and penicillin/streptomycin (100 iu), add test substances in various concentrations, and incubate for 60 min. 5 μl of the substances dissolved in ethanol, or only ethanol (controls), were added per mixture (10 ml). Induce cells by adding IL-6 (final concentrations 50 ng/ml).
After 20 min. remove medium and wash cell lawn twice wtih 1.5 ml of ice-cold PBS (137 mM NaCl, 2.7 mM KCl, 8.1 mM Na2HPO4×2H2O, 1.5 mM KH2PO4) each time. […]

With `C[C@H]1C=C2C(=O)O[C@H]3CC[C@@H](C1)[C@@]23O` [galiella lactone] the “fine motor control of the forepaws (staircase test)” value ([1]; 1.0 mg/kg) was “improved”, the “fine motor control of the forepaws (staircase test)” value ([1]; 3.0 mg/kg) was “improved” and the “effect on the phosphorylation of Stat1” value (Stat1) was “no effect”.
